“And” between values parts separate entries of the source, which are not always exact repeats. Identical values can stand only once.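 Test compounds were applied to cells in 96-well plates for 48 hours at 5 doses. GI50 marks 50% less growth. TGI denotes the concentration required for complete inhibition of growth.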
Key:
Assay in all cases: DTP human tumour cell line panel, 48 h
786-0 renal = tested on: 786-0 renal
HS 578T breast = tested on: HS 578T breast
K-562 leukemia = tested on: K-562 leukemia
MALME-3M melanoma = tested on: MALME-3M melanoma
MOLT-4 leukemia = tested on: MOLT-4 leukemia
OVCAR-3 ovarian = tested on: OVCAR-3 ovarian
OVCAR-5 ovarian = tested on: OVCAR-5 ovarian
RXF 393 renal = tested on: RXF 393 renal
SN12C renal = tested on: SN12C renal
UACC-257 melanoma = tested on: UACC-257 melanoma

Row | SMILES | GI50 (786-0 renal) | TGI (786-0 renal) | GI50 (HS 578T breast) | TGI (HS 578T breast) | GI50 (K-562 leukemia) | TGI (K-562 leukemia) | GI50 (MALME-3M melanoma) | TGI (MALME-3M melanoma) | GI50 (MOLT-4 leukemia) | TGI (MOLT-4 leukemia) | GI50 (OVCAR-3 ovarian) | TGI (OVCAR-3 ovarian) | GI50 (OVCAR-5 ovarian) | TGI (OVCAR-5 ovarian) | GI50 (RXF 393 renal) [nM] | TGI (RXF 393 renal) | GI50 (SN12C renal) | TGI (SN12C renal) | GI50 (UACC-257 melanoma) | TGI (UACC-257 melanoma) [µM]
1 | COc1ccc(/C=N\NC(=O)c2ccc3nc(-c4ccc(Cl)cc4)[nH]c3c2)cc1 | 1930 nM | 3.67 µM | 2300 nM | 5.64 µM | 2690 nM | 11.2 µM | 1670 nM | 3.63 µM | 4.53 µM | 30.4 µM | 2280 nM | 5.14 µM | 2350 nM | 6.89 µM | 1860 | 3.8 µM | 2460 nM | 6.79 µM | 3.27 µM | 10.1
2 | O=C(c1ccco1)c1nc2cc(C(F)(F)F)ccc2[n+]([O-])c1C(F)(F)F | 83600 nM | > 100 µM | 51900 nM | > 100 µM | 48900 nM | > 100 µM | 33000 nM | > 100 µM | 90.3 µM | > 100 µM | 30500 nM | > 100 µM | 31500 nM | > 100 µM | 61400 | > 100 µM | 65100 nM | > 100 µM | 69.8 µM | > 100
3 | COC1C(CO)OC(n2c3c(Cl)cccc3c3c4c(c5c6cccc(Cl)c6[nH]c5c32)C(=O)NC4=O)C(O)C1O (stereo not drawn) |  | 2.32 µM |  | > 100 µM |  | > 100 µM |  | 1.12 µM |  | > 100 µM |  | 6.67 µM |  | > 41.9 µM |  | 4.95 µM |  | > 29.2 µM |  | 1.75
4 | c1ccc2cc(C[n+]3ccn(Cc4ccc5ccccc5n4)c3)ccc2c1 | 2730 nM and 10600 nM | 13 µM and 24.8 µM | 1250 nM and 4490 nM | 12.2 µM and 20.3 µM | 585 nM and 1700 nM | 13.8 µM and 14.8 µM | 235 nM and 1360 nM | 0.811 µM and 6.35 µM | 0.488 µM and 3.19 µM | 5.04 µM and 14.7 µM | 316 nM and 2150 nM | 1.98 µM and 13.2 µM | 588 nM and 3580 nM | 9.52 µM and 16.7 µM |  | 3.23 µM and 19.7 µM | 347 nM and 2820 nM | 6.15 µM and 11 µM | 0.28 µM and 2.7 µM | 
5 | CC[C@H](C)[C@H](NC(=O)NC(C)(C)C)C(=O)N(C)[C@H](C[C@@H](OC(C)=O)c1nc(C(=O)N[C@@H](Cc2ccccc2)C[C@H](C)C(=O)OC)cs1)C(C)C | 609 nM | 4.59 µM | 792 nM | > 15.3 µM | 461 nM | > 25 µM | > 5510 nM | > 25 µM | 0.853 µM | > 25 µM | 158 nM | 0.964 µM | 2400 nM | > 25 µM | 430 | > 20.3 µM | 1070 nM | > 25 µM | 4.67 µM | > 25
